Laboratory results published in patent publication US6531493B1, “3-cyclopropylmethoxy-4-difluoromethoxy-N-(3,5-dichloropyrid-4-yl)benzamide in the treatment of multiple sclerosis” (Altana Pharma AG, priority 1999, dated 2003).

Test system: Experimental autoimmune encephalomyelitis (EAE) in female SJL mice
Assay: Experimental autoimmune encephalomyelitis (EAE) induced with PLP139-151, daily clinical scoring
Type: in vivo
Details: for Number of sick animals: 2 × 5 mg/kg p.o., 2× daily up to day 21, n=10
[1] = oral administration, compared with untreated controls

Q: Which “Number of sick animals” value (day 2 after EAE induction) does the source give for O=C(Nc1c(Cl)cncc1Cl)c1ccc(OC(F)F)c(OCC2CC2)c1 [substance A, 3-cyclopropylmethoxy-4-difluoromethoxy-N-(3,5-dichloropyrid-4-yl)benzamide] here?
A: 0

Q: What about the “Number of sick animals” value (day 4 after EAE induction) of the same compound?
A: 0

Q: And the “Number of sick animals” value (day 6 after EAE induction)?
A: 0

Q: And the “Number of sick animals” value (day 8 after EAE induction)?
A: 0

Q: And the “Number of sick animals” value (day 10 after EAE induction)?
A: 0

Q: And the “Number of sick animals” value (day 12 after EAE induction)?
A: 0

Q: What about the “Number of sick animals” value (day 14 after EAE induction) of the same compound?
A: 1

Q: What about the “Number of sick animals” value (day 16 after EAE induction) of the same compound?
A: 3

Q: And the “Number of sick animals” value (day 18 after EAE induction)?
A: 3

Q: And the “Number of sick animals” value (day 20 after EAE induction)?
A: 3

Q: And the “Number of sick animals” value (day 22 after EAE induction)?
A: 3

Q: What about the “Number of sick animals” value (day 24 after EAE induction) of the same compound?
A: 4

Q: And the “Number of sick animals” value (day 26 after EAE induction)?
A: 3

Q: What about the “Number of experimental animals with no MS-analogous symptomatology at all” value (of the 10 treated animals, monitoring period up to the 26th day after EAE induction) of the same compound?
A: 6

Q: And the “Effect on onset of the MS-analogous symptomatology” value [1]?
A: delay in the onset of the MS-analogous symptomatology

Q: And the “Effect on the number of animals which suffer from the experimental encephalitis” value [1]?
A: marked decrease in the number of animals
